Assay results taken from the supplement of paper PMC4862054.

test system: BT-549; assay: normalised response (% of control), CellTiter-Glo; higher = more viable cells (100 = DMSO, 0 = benzethonium chloride kill control); details: incubation time: 72 h
Method in brief: (§1)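 Normalised signals at single concentrations make up the values. They come from breast cancer cell lines seeded (20 µl suspension) into 384-well plates with compound at 5 concentrations in 10-fold steps over a compound-specific 10,000-fold range, incubated 72 h, and read for CellTox Green fluorescence then CellTiter-Glo luminescence. Each plate was normalised to 0.1 % DMSO (100) and a positive kill control (0).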

First: CC(C)NC[C@@H](C(=O)N1CCN(c2ncnc3c2[C@H](C)C[C@H]3O)CC1)c1ccc(Cl)cc1 [GDC-0068] (100 nM)
Second: CCCc1cc(C)[nH]c(=O)c1CNC(=O)c1cc(-c2ccnc(N3CCN(C)CC3)c2)cc2c1cnn2C(C)C [GSK343] (100 nM)
The normalised response of the first is lower: 94.2% for the first, 101% for the second.

First: NC(=O)NO [Hydroxyurea] (1000 nM)
Second: O=C(O)CC[C@H]1CC[C@@](c2cc(F)ccc2F)(S(=O)(=O)c2ccc(Cl)cc2)CC1 [MK-0752] (10 nM)
The normalised response of the first is higher: 105% for the first, 93.8% for the second.

First: COc1cc2c(cc1-c1c(C)noc1C)ncc1[nH]c(=O)n([C@H](C)c3ccccn3)c12 [I-BET151] (100 nM)
Second: CC(C)n1nc(-c2ccc3oc(N)nc3c2)c2c(N)ncnc21 [INK128] (10 nM)
The normalised response of the first is higher: 98.8% for the first, 74.7% for the second.

test system: HCC1937; assay: as above; details: incubation time: 72 h
Method in brief: as §1

Compared with `CC(C)NC[C@@H](C(=O)N1CCN(c2ncnc3c2[C@H](C)C[C@H]3O)CC1)c1ccc(Cl)cc1` [GDC-0068] (100 nM), `CCCc1cc(C)[nH]c(=O)c1CNC(=O)c1cc(-c2ccnc(N3CCN(C)CC3)c2)cc2c1cnn2C(C)C` [GSK343] (100 nM) is higher in normalised response: 90.9% for the first, 94.9% for the second.

Going from `NC(=O)NO` [Hydroxyurea] (1000 nM) to `O=C(O)CC[C@H]1CC[C@@](c2cc(F)ccc2F)(S(=O)(=O)c2ccc(Cl)cc2)CC1` [MK-0752] (10 nM), the normalised response rises from 97.6% to 98.8%.

First: COc1cc2c(cc1-c1c(C)noc1C)ncc1[nH]c(=O)n([C@H](C)c3ccccn3)c12 [I-BET151] (100 nM)
Second: CC(C)n1nc(-c2ccc3oc(N)nc3c2)c2c(N)ncnc21 [INK128] (10 nM)
The normalised response of the first is higher: 98.4% for the first, 82.9% for the second.

test system: MDA-MB-436; assay: as above; details: incubation time: 72 h
Method in brief: as §1

Going from `CC(C)NC[C@@H](C(=O)N1CCN(c2ncnc3c2[C@H](C)C[C@H]3O)CC1)c1ccc(Cl)cc1` [GDC-0068] (100 nM) to `CCCc1cc(C)[nH]c(=O)c1CNC(=O)c1cc(-c2ccnc(N3CCN(C)CC3)c2)cc2c1cnn2C(C)C` [GSK343] (100 nM), the normalised response rises from 97.3% to 103%.

Going from `NC(=O)NO` [Hydroxyurea] (1000 nM) to `O=C(O)CC[C@H]1CC[C@@](c2cc(F)ccc2F)(S(=O)(=O)c2ccc(Cl)cc2)CC1` [MK-0752] (10 nM), the normalised response rises from 98.5% to 99.7%.

First: COc1cc2c(cc1-c1c(C)noc1C)ncc1[nH]c(=O)n([C@H](C)c3ccccn3)c12 [I-BET151] (100 nM)
Second: CC(C)n1nc(-c2ccc3oc(N)nc3c2)c2c(N)ncnc21 [INK128] (10 nM)
The normalised response of the first is higher: 96.4% for the first, 79.1% for the second.

test system: CAL-148; assay: as above; details: incubation time: 72 h
Method in brief: as §1

Compared with `CC(C)NC[C@@H](C(=O)N1CCN(c2ncnc3c2[C@H](C)C[C@H]3O)CC1)c1ccc(Cl)cc1` [GDC-0068] (100 nM), `CCCc1cc(C)[nH]c(=O)c1CNC(=O)c1cc(-c2ccnc(N3CCN(C)CC3)c2)cc2c1cnn2C(C)C` [GSK343] (100 nM) is higher in normalised response: 62.8% for the first, 90.1% for the second.

Compared with `NC(=O)NO` [Hydroxyurea] (1000 nM), `O=C(O)CC[C@H]1CC[C@@](c2cc(F)ccc2F)(S(=O)(=O)c2ccc(Cl)cc2)CC1` [MK-0752] (10 nM) is higher in normalised response: 104% for the first, 108% for the second.

Going from `COc1cc2c(cc1-c1c(C)noc1C)ncc1[nH]c(=O)n([C@H](C)c3ccccn3)c12` [I-BET151] (100 nM) to `CC(C)n1nc(-c2ccc3oc(N)nc3c2)c2c(N)ncnc21` [INK128] (10 nM), the normalised response falls from 110% to 81.7%.

test system: HCC1599; assay: as above; details: incubation time: 72 h
Method in brief: as §1

First: CC(C)NC[C@@H](C(=O)N1CCN(c2ncnc3c2[C@H](C)C[C@H]3O)CC1)c1ccc(Cl)cc1 [GDC-0068] (100 nM)
Second: CCCc1cc(C)[nH]c(=O)c1CNC(=O)c1cc(-c2ccnc(N3CCN(C)CC3)c2)cc2c1cnn2C(C)C [GSK343] (100 nM)
The normalised response of the first is higher: 93.9% for the first, 82.2% for the second.

Compared with `NC(=O)NO` [Hydroxyurea] (1000 nM), `O=C(O)CC[C@H]1CC[C@@](c2cc(F)ccc2F)(S(=O)(=O)c2ccc(Cl)cc2)CC1` [MK-0752] (10 nM) is lower in normalised response: 97.1% for the first, 91.8% for the second.

`COc1cc2c(cc1-c1c(C)noc1C)ncc1[nH]c(=O)n([C@H](C)c3ccccn3)c12` [I-BET151] (100 nM) and `CC(C)n1nc(-c2ccc3oc(N)nc3c2)c2c(N)ncnc21` [INK128] (10 nM) are the same in normalised response: 100% for the first, 100% for the second.

test system: Hs578T; assay: as above; details: incubation time: 72 h
Method in brief: as §1

First: CC(C)NC[C@@H](C(=O)N1CCN(c2ncnc3c2[C@H](C)C[C@H]3O)CC1)c1ccc(Cl)cc1 [GDC-0068] (100 nM)
Second: CCCc1cc(C)[nH]c(=O)c1CNC(=O)c1cc(-c2ccnc(N3CCN(C)CC3)c2)cc2c1cnn2C(C)C [GSK343] (100 nM)
The normalised response of the first is higher: 102% for the first, 95.5% for the second.

Going from `NC(=O)NO` [Hydroxyurea] (1000 nM) to `O=C(O)CC[C@H]1CC[C@@](c2cc(F)ccc2F)(S(=O)(=O)c2ccc(Cl)cc2)CC1` [MK-0752] (10 nM), the normalised response rises from 101% to 106%.

Compared with `COc1cc2c(cc1-c1c(C)noc1C)ncc1[nH]c(=O)n([C@H](C)c3ccccn3)c12` [I-BET151] (100 nM), `CC(C)n1nc(-c2ccc3oc(N)nc3c2)c2c(N)ncnc21` [INK128] (10 nM) is lower in normalised response: 102% for the first, 85% for the second.

test system: CAL-51; assay: as above; details: incubation time: 72 h
Method in brief: as §1

Compared with `CC(C)NC[C@@H](C(=O)N1CCN(c2ncnc3c2[C@H](C)C[C@H]3O)CC1)c1ccc(Cl)cc1` [GDC-0068] (100 nM), `CCCc1cc(C)[nH]c(=O)c1CNC(=O)c1cc(-c2ccnc(N3CCN(C)CC3)c2)cc2c1cnn2C(C)C` [GSK343] (100 nM) is lower in normalised response: 80% for the first, 67.6% for the second.

First: NC(=O)NO [Hydroxyurea] (1000 nM)
Second: O=C(O)CC[C@H]1CC[C@@](c2cc(F)ccc2F)(S(=O)(=O)c2ccc(Cl)cc2)CC1 [MK-0752] (10 nM)
The normalised response of the first is lower: 61.3% for the first, 101% for the second.

Compared with `COc1cc2c(cc1-c1c(C)noc1C)ncc1[nH]c(=O)n([C@H](C)c3ccccn3)c12` [I-BET151] (100 nM), `CC(C)n1nc(-c2ccc3oc(N)nc3c2)c2c(N)ncnc21` [INK128] (10 nM) is lower in normalised response: 104% for the first, 76.8% for the second.

test system: CAL-120; assay: as above; details: incubation time: 72 h
Method in brief: as §1

Going from `CC(C)NC[C@@H](C(=O)N1CCN(c2ncnc3c2[C@H](C)C[C@H]3O)CC1)c1ccc(Cl)cc1` [GDC-0068] (100 nM) to `CCCc1cc(C)[nH]c(=O)c1CNC(=O)c1cc(-c2ccnc(N3CCN(C)CC3)c2)cc2c1cnn2C(C)C` [GSK343] (100 nM), the normalised response falls from 104% to 94.6%.

First: NC(=O)NO [Hydroxyurea] (1000 nM)
Second: O=C(O)CC[C@H]1CC[C@@](c2cc(F)ccc2F)(S(=O)(=O)c2ccc(Cl)cc2)CC1 [MK-0752] (10 nM)
The normalised response of the first is lower: 102% for the first, 106% for the second.

Compared with `COc1cc2c(cc1-c1c(C)noc1C)ncc1[nH]c(=O)n([C@H](C)c3ccccn3)c12` [I-BET151] (100 nM), `CC(C)n1nc(-c2ccc3oc(N)nc3c2)c2c(N)ncnc21` [INK128] (10 nM) is lower in normalised response: 99.9% for the first, 82.4% for the second.

test system: MFM-223; assay: as above; details: incubation time: 72 h
Method in brief: as §1

Going from `CC(C)NC[C@@H](C(=O)N1CCN(c2ncnc3c2[C@H](C)C[C@H]3O)CC1)c1ccc(Cl)cc1` [GDC-0068] (100 nM) to `CCCc1cc(C)[nH]c(=O)c1CNC(=O)c1cc(-c2ccnc(N3CCN(C)CC3)c2)cc2c1cnn2C(C)C` [GSK343] (100 nM), the normalised response rises from 68.4% to 95.5%.

Compared with `NC(=O)NO` [Hydroxyurea] (1000 nM), `O=C(O)CC[C@H]1CC[C@@](c2cc(F)ccc2F)(S(=O)(=O)c2ccc(Cl)cc2)CC1` [MK-0752] (10 nM) is higher in normalised response: 105% for the first, 106% for the second.

First: COc1cc2c(cc1-c1c(C)noc1C)ncc1[nH]c(=O)n([C@H](C)c3ccccn3)c12 [I-BET151] (100 nM)
Second: CC(C)n1nc(-c2ccc3oc(N)nc3c2)c2c(N)ncnc21 [INK128] (10 nM)
The normalised response of the first is higher: 103% for the first, 70.6% for the second.

test system: SK-BR-3; assay: as above; details: incubation time: 72 h
Method in brief: as §1

`CC(C)NC[C@@H](C(=O)N1CCN(c2ncnc3c2[C@H](C)C[C@H]3O)CC1)c1ccc(Cl)cc1` [GDC-0068] (100 nM) gave a normalised response of 95.1%.
